In article PMC9551036, “A selective and orally bioavailable VHL-recruiting PROTAC achieves SMARCA2 degradation in vivo” (Nature Communications, 2022):
Where “and” joins values, the source holds several entries; their conditions need not be identical. Identical values can stand only once. Like-named read-outs stand apart in the source and are kept apart here.

How the values were obtained:
PBRM1 BD = molecular target: T1, PBRM1 BD (Homo sapiens, UniProt Q86U86); experiment: TR-FRET binary and ternary (PROTAC + VCB) affinity, PBRM1 bromodomain; format: binding; settings: individual replicates
T1 construct: GST (TEV site) (N); made in house; host or cells: Escherichia coli BL21(DE3)

SMARCA4 [1] = molecular target: T2, SMARCA4 (Homo sapiens, UniProt P51532); experiment: SMARCA4 capillary electrophoresis protein assay in RKO cells; format: cell-based; design: endogenous in cells; host or cells: RKO, HCT116, LU99, HCC-364, HCT-15, HCC4006, SK-N-AS; settings: mean ± SD; for Dmax: RKO
In short: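 Cells were treated with compound for 4 or 18 h. Half-life was followed with 50 µg/ml cycloheximide for 1–24 h, and re-synthesis with 100 nM compound 6 for 4 h, then VHL binder at 25 or 50 µM for 3 or 24 h. SMARCA2/4 was quantified by Wes capillary immunoassay, normalised to GAPDH, with 4-parameter logistic fits.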

PBRM1BD5 = molecular target: T3, PBRM1BD5 (Homo sapiens, UniProt Q86U86); experiment: TR-FRET ternary complex affinity and cooperativity, PBRM1; format: binding; settings: TR-FRET competition for PBRM1BD5, without VCB; mean ± SD; read-out: TR-FRET PBRM1BD EC50
T3 construct: GST (TEV site) (N); His6 (TEV site) (N, cleaved yes); made in house; host or cells: PBRM1^BD5: Escherichia coli BL21(DE3)

SMARCA4 [2] = molecular target: T2, SMARCA4; experiment: Imaging-based SMARCA4 protein assay in RKO cells; format: cell-based; design: endogenous in cells; host or cells: RKO, HCT116, LU99, HCC-364, HCT-15, HCC4006, SK-N-AS; settings: individual replicates
In short: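 RKO cells were seeded at 1250 per well in 60 µl medium on poly-lysin coated 384-well plates and dosed next day with serial compound dilutions or DMSO. After fixation, blocking with 10% goat serum and SMARCA2/4 antibody staining, nuclear mean intensity was imaged on Opera Phoenix, normalized to background-corrected DMSO, and fitted with a 4-parametric logistic model.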

[3] = molecular target: VCB: PROTAC: SMARCA2^BD ternary complex (Homo sapiens, UniProt P40337+P51531); experiment: TR-FRET ternary complex affinity and cooperativity, SMARCA2; format: binding; design: P51531-2, residues 1373-1493 with additional N-terminal SM residues; GST (TEV site) (N); His6 (TEV site) (N, cleaved yes); made in house; host or cells: SMARCA2^BD: Escherichia coli BL21(DE3)
[4] = molecular target: T4, VCB: PROTAC: SMARCA2^BD ternary complex (Homo sapiens, UniProt P51531); experiment: as above; format: binding
T4 construct: P51531-2, residues 1373-1493 with additional N-terminal SM residues; GST (TEV site) (N); His6 (TEV site) (N, cleaved yes); made in house; host or cells: SMARCA2^BD: Escherichia coli BL21(DE3)

[5] = PROTAC + VCB, read-out: Ternary PBRM1 BD EC50 (PROTAC + VCB)
[6] = binary, PROTAC alone, read-out: PBRM1 EC50
[7] = 4h, read-out: RKO (4h) SMARCA4 DC50
[8] = 18h, read-out: RKO (18h) SMARCA4 DC50
[9] = PROTAC + VCB, individual replicates, read-out: Ternary SMARCA2 BD EC50 (PROTAC + VCB)
[10] = binary, PROTAC alone, individual replicates, read-out: SMARCA2 BD EC50
[11] = TR-FRET competition for SMARCA2BD, + VCB, mean ± SD, read-out: TR-FRET Ternary SMARCA2BD EC50 (PROTAC + VCB)
[12] = TR-FRET competition for SMARCA2BD, without VCB, mean ± SD, read-out: TR-FRET SMARCA2BD EC50

T4 sequence (P51531 with tags, fused parts or gaps isoform P51531-2): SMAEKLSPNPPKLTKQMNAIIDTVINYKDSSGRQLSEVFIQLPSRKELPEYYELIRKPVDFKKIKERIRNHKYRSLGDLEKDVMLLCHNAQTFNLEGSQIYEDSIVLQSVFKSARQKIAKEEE
VCB: PROTAC: SMARCA2^BD ternary complex (Homo sapiens, UniProt P40337+P51531), sequence (P51531 with tags, fused parts or gaps isoform P51531-2): as above
VCB: PROTAC: SMARCA2^BD ternary complex (Homo sapiens, UniProt P40337+P51531), sequence (P40337 54-213): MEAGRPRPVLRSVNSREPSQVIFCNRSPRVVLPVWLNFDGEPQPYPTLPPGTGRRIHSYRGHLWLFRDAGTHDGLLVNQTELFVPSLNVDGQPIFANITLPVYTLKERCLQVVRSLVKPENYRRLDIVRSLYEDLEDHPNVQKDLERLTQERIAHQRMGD
VCB: PROTAC: SMARCA2^BD ternary complex (Homo sapiens, UniProt P40337+P51531), sequence (Q15369 17-112 partner): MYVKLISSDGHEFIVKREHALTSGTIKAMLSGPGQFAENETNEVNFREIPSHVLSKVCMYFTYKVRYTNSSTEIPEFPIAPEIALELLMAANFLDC
VCB: PROTAC: SMARCA2^BD ternary complex (Homo sapiens, UniProt P40337+P51531), sequence (Q15370 1-104 partner): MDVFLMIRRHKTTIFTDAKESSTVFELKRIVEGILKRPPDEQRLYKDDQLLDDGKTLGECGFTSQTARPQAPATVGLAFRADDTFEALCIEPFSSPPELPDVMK
T3 sequence (Q86U86 645-766): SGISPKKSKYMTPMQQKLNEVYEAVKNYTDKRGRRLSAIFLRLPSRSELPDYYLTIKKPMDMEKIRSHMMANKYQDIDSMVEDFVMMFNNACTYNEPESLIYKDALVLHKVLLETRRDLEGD
T2 sequence (P51532 whole entry): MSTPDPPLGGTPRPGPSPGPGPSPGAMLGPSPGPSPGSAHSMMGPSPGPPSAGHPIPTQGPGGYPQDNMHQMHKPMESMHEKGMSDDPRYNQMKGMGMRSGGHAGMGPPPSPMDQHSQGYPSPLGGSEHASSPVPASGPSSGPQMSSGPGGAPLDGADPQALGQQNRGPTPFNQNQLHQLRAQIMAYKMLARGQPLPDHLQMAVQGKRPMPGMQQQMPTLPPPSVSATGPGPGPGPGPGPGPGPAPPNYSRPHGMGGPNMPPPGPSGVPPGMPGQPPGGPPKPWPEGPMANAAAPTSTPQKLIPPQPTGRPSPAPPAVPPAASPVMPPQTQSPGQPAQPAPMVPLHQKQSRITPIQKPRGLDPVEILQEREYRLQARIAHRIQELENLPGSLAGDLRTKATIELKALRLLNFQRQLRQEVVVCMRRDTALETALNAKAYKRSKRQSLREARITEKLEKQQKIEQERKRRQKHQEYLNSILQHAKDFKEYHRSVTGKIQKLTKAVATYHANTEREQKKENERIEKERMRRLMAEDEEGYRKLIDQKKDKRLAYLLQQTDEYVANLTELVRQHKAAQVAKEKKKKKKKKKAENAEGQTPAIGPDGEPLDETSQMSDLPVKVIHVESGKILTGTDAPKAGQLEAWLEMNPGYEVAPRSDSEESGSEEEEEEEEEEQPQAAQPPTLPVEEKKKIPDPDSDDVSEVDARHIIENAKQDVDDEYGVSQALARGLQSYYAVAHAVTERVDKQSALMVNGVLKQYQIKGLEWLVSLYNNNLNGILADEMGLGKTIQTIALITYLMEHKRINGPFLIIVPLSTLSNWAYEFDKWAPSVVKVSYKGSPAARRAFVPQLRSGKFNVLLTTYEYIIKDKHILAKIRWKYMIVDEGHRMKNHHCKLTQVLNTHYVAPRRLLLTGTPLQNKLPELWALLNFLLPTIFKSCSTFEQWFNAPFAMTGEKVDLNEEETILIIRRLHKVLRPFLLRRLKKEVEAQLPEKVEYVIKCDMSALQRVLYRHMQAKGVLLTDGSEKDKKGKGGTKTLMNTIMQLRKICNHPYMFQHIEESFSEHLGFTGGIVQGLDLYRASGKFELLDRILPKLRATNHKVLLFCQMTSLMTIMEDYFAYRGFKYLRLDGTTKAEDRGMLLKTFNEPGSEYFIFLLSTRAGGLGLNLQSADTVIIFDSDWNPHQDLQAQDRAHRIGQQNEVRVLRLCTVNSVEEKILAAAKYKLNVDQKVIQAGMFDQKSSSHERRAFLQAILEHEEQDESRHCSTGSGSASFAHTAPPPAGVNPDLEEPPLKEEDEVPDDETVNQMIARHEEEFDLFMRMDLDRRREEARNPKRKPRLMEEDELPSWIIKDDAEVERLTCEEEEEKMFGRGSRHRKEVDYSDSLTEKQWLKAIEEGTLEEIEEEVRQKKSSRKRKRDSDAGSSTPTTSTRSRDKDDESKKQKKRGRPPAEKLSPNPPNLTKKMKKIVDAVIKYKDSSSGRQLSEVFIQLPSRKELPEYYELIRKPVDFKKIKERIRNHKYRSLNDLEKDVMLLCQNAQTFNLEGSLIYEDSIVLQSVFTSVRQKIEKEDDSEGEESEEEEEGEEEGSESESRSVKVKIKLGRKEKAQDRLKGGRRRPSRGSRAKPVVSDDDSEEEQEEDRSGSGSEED

Structure (SMILES)	EC50 (PBRM1 BD; [5])	EC50 (PBRM1 BD; [6])	DC50 (SMARCA4 [1]; RKO (4 h))	DC50 (SMARCA4 [1]; RKO (18 h))	EC50 (PBRM1BD5)	DC50 (SMARCA4 [2]; [7])	DC50 (SMARCA4 [2]; [8])	EC50 [3, 9]	EC50 [4, 10]	SMARCA4 Dmax (SMARCA4 [1]; RKO (4 h))	SMARCA4 Dmax (SMARCA4 [1]; RKO (18 h))	EC50 [3, 11]	EC50 [4, 12]	Dmax (SMARCA4 [1]; RKO (4 h))	Dmax (SMARCA4 [1]; RKO (18 h))
CN1CCN(c2nc(=O)c3c(Cl)cccc3o2)CC1 [compound 13]	> 10000 nM	> 10000 nM	> 25000 nM	> 25000 nM	> 10000 nM	> 25000 nM	> 25000 nM	> 10000 nM	> 10000 nM	–	–	–	–	–	–
Cc1ncsc1-c1ccc([C@H](COCCCN2CCC(c3ccc4c(c3)n(C3CCCC3)c3nc(=O)c5c(Br)cccc5n43)CC2)NC(=O)[C@@H]2C[C@@H](O)CN2C(=O)[C@@H](NC(=O)C2(F)CC2)C(C)(C)C)cc1 [compound 27]	2.18 nM and 2.66 nM and 2.87 nM and 2.65 nM and 2.69 nM and 3.64 nM and 3.28 nM	32.7 nM and 35.1 nM and 34.6 nM and 30.3 nM and 34.2 nM and 22.8 nM and 45.7 nM	42 ± 3 nM	29 ± 6 nM	33 ± 7 nM	–	22.8 nM and 30.9 nM and 34.7 nM	29.5 nM and 30.9 nM and 30.6 nM and 24.4 nM and 46.9 nM and 21.2 nM and 34.9 nM and 23.9 nM	98.5 nM and 107 nM and 101 nM (2×) and 91.6 nM and 79.8 nM and 86.9 nM and 77.2 nM and 83.6 nM	55 ± 2%	83 ± 7%	29 ± 8 nM	91 ± 11 nM	–	–
Cc1ncsc1-c1ccc(CNC(=O)[C@@H]2C[C@H](O)CN2C(=O)[C@@H](NC(=O)C2(F)CC2)C(C)(C)C)c(OCCN2CCC(c3ccc4c(c3)n(C3CCCC3)c3nc(=O)c5c(Br)cccc5n43)CC2)c1 [compound 19]	38.5 nM and 41 nM and 40.2 nM	35.2 nM and 39.5 nM and 40.1 nM	> 25000 nM	> 25000 nM	38 ± 2 nM	> 25000 nM	> 25000 nM	69.1 nM and 75.9 nM and 70.4 nM	79.1 nM and 82 nM and 94.2 nM	–	–	72 ± 3 nM	85 ± 7 nM	–	–
Cc1ncsc1-c1ccc(CNC(=O)[C@@H]2C[C@@H](O)CN2C(=O)[C@@H](NC(=O)C2(F)CC2)C(C)(C)C)c(OCCOCCOCCN2CCC(c3ccc4c(c3)n(C3CCCC3)c3nc(=O)c5c(Br)cccc5n43)CC2)c1 [compound 21]	33.9 nM and 37.8 nM and 41.4 nM	71.9 nM and 80.2 nM and 77.4 nM	21 ± 19 nM	83 ± 78 nM	76 ± 4 nM	22.9 nM and 45.5 nM and 8.98 nM	42.3 nM and 189 nM and 70.5 nM	138 nM and 122 nM and 143 nM	246 nM and 264 nM and 255 nM	61 ± 16%	75 ± 3%	134 ± 11 nM	255 ± 9 nM	–	–
Cc1ncsc1-c1ccc(CNC(=O)[C@@H]2C[C@@H](O)CN2C(=O)[C@@H](NC(=O)C2(F)CC2)C(C)(C)C)c(OCCN2CCC(c3ccc4c(c3)n(C3CCCC3)c3nc(=O)c5c(Br)cccc5n43)CC2)c1 [compound 20]	30.2 nM and 37.8 nM and 37.5 nM	35.1 nM and 43.6 nM and 36.5 nM and 35.9 nM	> 25000 nM	> 25000 nM	38 ± 4 nM	> 25000 nM	> 25000 nM	140 nM and 137 nM and 122 nM and 109 nM and 217 nM	95.1 nM and 98.5 nM and 63.7 nM and 90.1 nM and 54.6 nM	–	–	141 ± 42 nM	78 ± 20 nM	–	–
Cc1ncsc1-c1ccc([C@H](CC[C@@H](C)CCN2CCC(c3ccc4c(c3)n(C3CCCC3)c3nc(=O)c5c(Br)cccc5n43)CC2)NC(=O)[C@@H]2C[C@@H](O)CN2C(=O)[C@@H](NC(=O)C2(F)CC2)C(C)(C)C)cc1 [compound 29]	2.66 nM and 3.59 nM and 4.13 nM	66.7 nM and 78.8 nM and 115 nM	15 ± 6 nM	11 ± 3 nM	85 ± 25 nM	11.1 nM and 13.5 nM and 12.4 nM and 24.9 nM	6.86 nM and 10.4 nM (2×) and 14.2 nM and 15.3 nM and 14 nM	29.4 nM and 32.4 nM and 32.3 nM and 32.6 nM	166 nM and 269 nM and 192 nM and 189 nM	68 ± 6%	87 ± 6%	32 ± 2 nM	201 ± 45 nM	–	–
Nc1cccc2c1c(=O)nc1n(C3CCCC3)c3ccccc3n21 [compound 2]	934 nM and 1020 nM and 925 nM	1080 nM and 1000 nM and 929 nM	> 25000 nM	> 25000 nM	1000 nM	2.7 µM and > 25 µM (2×)	> 25000 nM	1910 nM and 2000 nM and 1540 nM and 2490 nM	1620 nM and 1970 nM and 1530 nM and 2040 nM	–	–	1950 nM	1770 nM	–	–
CN1CCN(c2nc(=O)c3c(F)cccc3o2)CC1 [compound 17]	> 10000 nM	> 10000 nM	> 25000 nM	> 25000 nM	> 10000 nM	> 25000 nM	> 25000 nM	> 10000 nM	> 10000 nM	–	–	–	–	–	–
CN1CCN(c2nc(=O)c3c(Br)cccc3o2)CC1 [compound 15]	> 10000 nM	> 10000 nM	> 25000 nM	> 25000 nM	> 10000 nM	> 25000 nM	> 25000 nM	> 10000 nM	> 10000 nM	–	–	–	–	–	–
Cc1ncsc1-c1ccc([C@H](COCCN2CCC(c3ccc4c(c3)n(C3CCCC3)c3nc(=O)c5c(Br)cccc5n43)CC2)NC(=O)[C@@H]2C[C@@H](O)CN2C(=O)[C@@H](NC(=O)C2(N(C)C)CC2)C(C)(C)C)cc1 [compound 26]	4.07 nM and 5.33 nM and 4.96 nM and 5.58 nM and 10.7 nM and 6.01 nM and 6.73 nM and 6.09 nM	22.2 nM and 18.2 nM and 23.4 nM and 24.5 nM and 15.7 nM and 23.5 nM and 21.5 nM and 14.9 nM and 30.3 nM and 26.7 nM	81 ± 14 nM	83 ± 21 nM	22 ± 5 nM	66.9 nM and 93.6 nM and 83.9 nM	61.5 nM and 91.3 nM and 101 nM	13.6 nM and 14.3 nM and 15.5 nM and 15.9 nM and 16.4 nM and 11.2 nM and 10.2 nM and 21.5 nM and 22 nM and 6 nM and 9.26 nM	87 nM and 79.2 nM and 87.9 nM and 88.7 nM and 86.5 nM and 48.4 nM and 75.1 nM and 59.9 nM and 56.1 nM (2×) and 67.5 nM	–	–	13 ± 5 nM	71 ± 15 nM	61 ± 15%	82 ± 5%
